Counter-ions that a name gives are not always drawn. Like-named read-outs stand apart in the source and are kept apart here.
How the values were obtained:
mouse TAAR1 = mouse TAAR1 (Mus musculus (Mouse), UniProt Q923Y8); experiment: Radioligand binding assay on mouse TAAR1; conditions: read-out: Ki (μM) mouse
Summary of the method: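 Membranes were from HEK293 cells stably expressing mouse TAAR1. Compounds from 10 pM to 10 μM, in duplicate, competed with [3H]-(S)-4-[(ethyl-phenyl-amino)-methyl]-4,5-dihydro-oxazol-2-ylamine for 1 h at 4 °C. Nonspecific binding was defined with 10 μM unlabelled ligand, and bound radioactivity was read by filtration and scintillation.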

rat TAAR1 = rat TAAR1 (Rattus norvegicus (Rat), UniProt Q923Y9); experiment: Radioligand binding assay on rat TAAR1; conditions: read-out: Ki (μM) rat
Chain of rat TAAR1 (Q923Y9 whole entry): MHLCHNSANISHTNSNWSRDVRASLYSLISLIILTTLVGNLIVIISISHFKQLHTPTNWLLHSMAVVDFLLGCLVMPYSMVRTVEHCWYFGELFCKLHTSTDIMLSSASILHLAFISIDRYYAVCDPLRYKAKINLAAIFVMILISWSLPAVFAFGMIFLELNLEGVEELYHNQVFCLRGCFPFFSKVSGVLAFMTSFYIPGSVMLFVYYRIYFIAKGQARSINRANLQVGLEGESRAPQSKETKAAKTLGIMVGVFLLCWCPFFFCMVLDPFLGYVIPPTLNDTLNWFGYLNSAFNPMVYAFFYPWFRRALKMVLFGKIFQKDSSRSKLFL
Summary of the method: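 Membranes from HEK293 cells stably expressing rat TAAR1, with Kd checked per batch by saturation. Competition with ³H-(S)-4-[(ethyl-phenyl-amino)-methyl]-4,5-dihydro-oxazol-2-ylamine, compounds 10 pM–10 μM in duplicate, 1 hr at 4 °C. Filtration then scintillation counting; nonspecific binding defined with 10 μM unlabeled ligand.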

[1] = mouse TAAR1, HEK-293 membranes, first value of cell mouse/rat
[2] = rat TAAR1, HEK-293 membranes, second value of cell mouse/rat

Chain of mouse TAAR1 (Q923Y8 whole entry): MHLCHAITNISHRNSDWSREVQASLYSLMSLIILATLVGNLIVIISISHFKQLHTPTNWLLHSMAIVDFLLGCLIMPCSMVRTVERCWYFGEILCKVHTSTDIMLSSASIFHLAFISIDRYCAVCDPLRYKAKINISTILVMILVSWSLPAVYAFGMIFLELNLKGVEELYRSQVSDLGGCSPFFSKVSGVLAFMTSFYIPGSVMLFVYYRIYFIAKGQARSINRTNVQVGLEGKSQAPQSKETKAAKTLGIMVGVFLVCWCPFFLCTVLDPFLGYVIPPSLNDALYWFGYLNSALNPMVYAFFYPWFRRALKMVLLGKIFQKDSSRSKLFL

| Ki (mouse TAAR1; [1]) [µM] | Ki (rat TAAR1; [2]) [µM] | SMILES | Ki (mouse TAAR1) [µM] | Ki (rat TAAR1) [µM] |
| --- | --- | --- | --- | --- |
| 0.0524 | 0.001 | Cc1ccc(C(=O)Nc2ccc([C@H]3CNCCO3)cc2)cc1 [Example 196, (S)-4-Methyl-N-(4-(morpholin-2-yl)phenyl)benzamide hydrochloride] | – | – |
| 0.0201 | 0.0024 | O=C(Nc1ccc(C2CNCCO2)cc1)c1ccc(C(F)(F)F)cn1 (racemic) [Example 141, (RS)-5-Trifluoromethyl-pyridine-2-carboxylic acid (4-morpholin-2-yl-phenyl)-amide hydrochloride] | – | – |
| 0.0189 | 0.0837 | CN1CCN(c2ccc(NC(=O)Nc3ccc(-c4cnco4)cc3)cc2)CC1 [Example 4, 1-[4-(4-Methyl-piperazin-1-yl)-phenyl]-3-(4-oxazol-5-yl-phenyl)-urea] | – | – |
| 0.214 | 0.0014 | CSc1ccc(C(=O)Nc2ccc([C@@H]3CCCNC3)cc2)cc1 [Example 236, (S)-4-(Methylthio)-N-(4-(piperidin-3-yl)phenyl)benzamide hydrochloride] | – | – |
| 0.035 | 0.0059 | O=C(Nc1ccc(C2CCCNC2)cc1)c1ccc(C(F)(F)F)cn1 (racemic) [Example 138, (RS)-5-Trifluoromethyl-pyridine-2-carboxylic acid (4-piperidin-3-yl-phenyl)-amide hydrochloride] | – | – |
| 0.0041 | 0.0242 | O=C(Nc1ccc(C2CCNC2)cc1)c1ccc(Cl)nc1 (racemic) [Example 43, (RS)-6-Chloro-pyridine-3-carboxylic acid (4-pyrrolidin-3-yl-phenyl)-amide hydrochloride] | – | – |
| 0.0574 | 0.0056 | O=C(Nc1ccc(C2CNCCO2)cc1)Nc1ccc(Cl)nc1 (racemic) [Example 302, (RS)-1-(6-Chloropyridin-3-yl)-3-(4-(morpholin-2-yl)phenyl)urea hydrochloride] | – | – |
| – | – | O=C(Nc1ccc([C@H]2CNCCO2)cc1)c1cccc(Cl)c1 [Example 263, (S)-3-Chloro-N-(4-(morpholin-2-yl)phenyl)benzamide hydrochloride] | 0.0152 | 0.0011 |
| – | – | O=C(Nc1ccc([C@H]2CNCCO2)cc1)c1ccc(C(F)(F)F)nc1 [Example 284, (S)—N-(4-(Morpholin-2-yl)phenyl)-6-(trifluoromethyl)nicotinamide hydrochloride] | 0.0128 | 0.005 |
| – | – | O=C(Nc1ccc(C2CNCCO2)cc1)c1ccc(OCC(F)(F)F)nc1 (racemic) [Example 222, (RS)—N-(4-(Morpholin-2-yl)phenyl)-6-(2,2,2-trifluoroethoxy)nicotinamide hydrochloride] | 0.0037 | 0.0033 |
| 0.0407 | 0.0606 | CCC(C(=O)Nc1ccc(C2CCNC2)cc1)c1ccccc1 (racemic) [Example 38, (RS)-2-Phenyl-N—((RS)-4-pyrrolidin-3-yl-phenyl)-butyramide] | – | – |
| 0.0046 | 0.0081 | O=C(Nc1ccc(C2CCNC2)cc1)c1cc2ccccc2c(Cl)n1 (racemic) [Example 108, (RS)-1-Chloro-isoquinoline-3-carboxylic acid (4-pyrrolidin-3-yl-phenyl)-amide hydrochloride] | – | – |
| 0.824 | 0.0218 | O=C(Nc1ccc(CCC2CCCCN2)cc1)c1ccc(Cl)nc1 (racemic) [Example 173, (RS)-6-Chloro-N-(4-(2-(piperidin-2-yl)ethyl)phenyl)nicotinamide hydrochloride] | – | – |
| 2.5 | 0.296 | O=C(O)c1ccc(COc2ccc(C(=O)Nc3ccc(C4CNCCO4)cc3)cc2)cc1 (racemic) [Example 212, (RS)-4-((4-(4-(morpholin-2-yl)phenylcarbamoyl)phenoxy)methyl)benzoic acid hydrochloride] | – | – |
| 0.125 | 0.352 | COc1cccc(CC(=O)Nc2ccc(C3CCNC3)cc2)c1 (racemic) [Example 65, (RS)-2-(3-Methoxy-phenyl)-N-(4-pyrrolidin-3-yl-phenyl)-acetamide hydrochloride] | – | – |
| 0.008 | 0.0995 | O=C(Nc1ccc(C2CCNC2)cc1)c1ccccc1 (racemic) [Example 13, (RS)—N-(4-Pyrrolidin-3-yl-phenyl)-benzamide hydrochloride] | – | – |
| 2.51 | 0.0174 | CCc1cnc(C(=O)Nc2ccc([C@@H]3CCCNC3)cc2)cn1 [Example 274, (S)-5-Ethyl-N-(4-(piperidin-3-yl)phenyl)pyrazine-2-carboxamide hydrochloride] | – | – |
| – | – | COc1ccc(C(=O)Nc2ccc([C@@H]3CCCNC3)cc2)cc1Cl [Example 203, (S)-3-Chloro-4-methoxy-N-(4-(piperidin-3-yl)phenyl)benzamide hydrochloride] | 0.0603 | 0.0014 |
| 0.0146 | 0.0009 | O=C(Nc1ccc([C@@H]2CCCNC2)cc1)OCc1ccc(Cl)cc1 [Example 240, (S)-4-chlorobenzyl 4-(piperidin-3-yl)phenylcarbamate hydrochloride] | – | – |
| 0.0034 | 0.0035 | O=C(Nc1ccc([C@@H]2CCNC2)cc1)c1ccc(OCC(F)(F)F)nc1 [Example 205, (S)—N-(4-(Pyrrolidin-3-yl)phenyl)-6-(2,2,2-trifluoroethoxy)nicotinamide hydrochloride] | – | – |
| 0.0008 | 0.0018 | O=C(Nc1ccc(C2CCNC2)cc1)c1ccc(Cl)c(Cl)c1 (racemic) [Example 56, (RS)-3,4-Dichloro-N-(4-pyrrolidin-3-yl-phenyl)-benzamide hydrochloride] | – | – |
| – | – | C[C@@H]1CO[C@@H](c2ccc(NC(=O)c3cccc(Cl)c3)cc2)CN1 [Example 323, 3-Chloro-N-[4-((2S,5R)-5-methyl-morpholin-2-yl)-phenyl]-benzamide hydrochloride] | 0.0592 | 0.0013 |

| SMILES | Ki (mouse TAAR1; [1]) [µM] | Ki (rat TAAR1; [2]) [µM] | Ki (mouse TAAR1) [µM] | Ki (rat TAAR1) [µM] |
| --- | --- | --- | --- | --- |
| O=C(Nc1ccc(CCC2CCNC2)cc1)c1ncccc1F (racemic) [Example 132, (RS)-3-Fluoro-pyridine-2-carboxylic acid [4-(2-pyrrolidin-3-yl-ethyl)-phenyl]-amide hydrochloride] | 9.99 | 0.141 | – | – |
| O=C(Nc1ccc([C@@H]2CCCNC2)cc1)c1ccc(Cl)nc1 [Example 162, (S)-6-Chloro-N-(4-(piperidin-3-yl)phenyl)nicotinamide hydrochloride] | – | 0.0092 | 0.231 | – |
| O=C(Nc1ccc(C2CCCNC2)cc1)c1ccc(Cl)nc1 (racemic) [Example 74, (RS)-6-Chloro-N-(4-piperidin-3-yl-phenyl)-nicotinamide hydrochloride] | 0.0049 | 0.0672 | – | – |
| O=C(Nc1ccc(C2CCCNC2)cc1)c1ccc(Cl)cn1 (racemic) [Example 78, (RS)-5-Chloro-pyridine-2-carboxylic acid (4-piperidin-3-yl-phenyl)-amide hydrochloride] | 0.0067 | 0.0466 | – | – |
| O=C(Nc1ccc(C2CNCCO2)cc1)c1ccc(OCC2CC2)cc1 (racemic) [Example 214, (RS)-4-Cyclopropylmethoxy-N-(4-morpholin-2-yl-phenyl)-benzamide hydrochloride] | – | 0.0016 | 0.0057 | – |
| C[C@@H]1CNC[C@H](c2ccc(NC(=O)c3ccc(Cl)nc3)cc2)O1 [Example 310, 6-Chloro-N-(4-((2S,6R)-6-methylmorpholin-2-yl)phenyl)nicotinamide hydrochloride] | – | 0.0108 | 0.0476 | – |
| O=C(Nc1ccc(C2CCNC2)cc1)c1nccc2ccsc12 (racemic) [Example 93, (RS)-Thieno[2,3-c]pyridine-7-carboxylic acid (4-pyrrolidin-3-yl-phenyl)-amide hydrochloride] | 0.04 | 0.173 | – | – |
| Cc1ccc(C(=O)Nc2ccc([C@@H]3CCCNC3)cc2)cc1Cl [Example 225, (S)-3-Chloro-4-methyl-N-(4-(piperidin-3-yl)phenyl)benzamide hydrochloride] | – | 0.0006 | 0.0189 | – |
| O=C(Nc1ccc(CCC2CCCN2)cc1)c1ccc(Cl)c(Cl)c1 (racemic) [Example 154, (RS)-3,4-Dichloro-N-[4-(2-pyrrolidin-2-yl-ethyl)-phenyl]-benzamide hydrochloride] | 0.0082 | 0.0002 | – | – |
| O=C(Nc1ccc(C2CNCCO2)cc1)Nc1ccccc1Cl (racemic) [Example 305, (RS)-1-(2-Chlorophenyl)-3-(4-(morpholin-2-yl)phenyl)urea hydrochloride] | 0.0266 | – | – | 0.0038 |
| O=C(Nc1ccc(C2CNCCO2)cc1)c1ccccc1 (racemic) [Example 188, (RS)—N-(4-(Morpholin-2-yl)phenyl)benzamide hydrochloride] | 0.138 | – | – | 0.0055 |
| O=C(Nc1ccc([C@@H]2CNCCO2)cc1)c1ccc(Cl)nc1 [Example 207, (R)-6-Chloro-N-(4-(morpholin-2-yl)phenyl)nicotinamide hydrochloride] | 0.0525 | – | – | 0.0042 |
| O=C(Nc1ccc([C@@H]2CCCNC2)cc1)c1cccc(Cl)c1 [Example 153, (S)-3-Chloro-N-(4-(piperidin-3-yl)phenyl)benzamide hydrochloride] | – | 0.0005 | 0.0715 | – |
| O=C(Nc1ccc(C2CCCNC2)cc1)c1ccc(Cl)cc1F (racemic) [Example 100, (RS)-4-Chloro-2-fluoro-N-(4-piperidin-3-yl-phenyl)-benzamide hydrochloride] | 0.0036 | 0.0308 | – | – |
| O=C(Nc1ccc(OC2CCNC2)cc1)c1ccc(Cl)cc1 (racemic) [Example 39, (RS)-4-Chloro-N-[4-(pyrrolidin-3-yloxy)-phenyl]-benzamide hydrochloride] | 0.0007 | 0.0139 | – | – |

— patent US9452980B2, “Substituted benzamides” (Hoffmann-La Roche Inc., priority 2009, dated 2016)
